Patent US20250161308A1, “Methods of Treating Covid-Related Disorders” (priority 2022, published 2025)
Where two headings read alike, the source gives them in different places.

Tests used:
[1] = test system: patient in need of treatment for long COVID; assay: Treating long COVID (Example 1), clinical screening assessments; assay type: in vivo, human; conditions: patients with long COVID
Experimental: A Compound of Formula (I), such as Compound 2a or Compound 1a, or a pharmaceutically acceptable salt thereof, is administered orally to a patient in need of treatment for long COVID.
In some embodiments, a patient in need of treatment for long COVID is assessed with ADCS-ADL23. The ADCS-ADL23 (Galasko, 1997) is a 23-item assessment of functional impairment in terms of activities of daily living administered to the support person/caregiver. It comprises 23 questions about the subject's involvement and level of performance across items representing daily living. The questions range from basic to instrumental activities of daily living. Each item is rated from the highest level of independent performance to complete loss. The total score range is from 0 to 78, with lower scores indicating greater functional impairment.
A patient in need of treatment for long COVID is assessed with ERP P300. ERP P300 is a quantitative, unbiased, non-invasive method of recording task-related brain processing speed, elicited by external stimuli, e.g., an oddball auditory stimulus, and is a well-established functional biomarker, particularly of working memory access (Ally, 2006). ERP P300 is characterized by a stereotyped series of voltage deflections occurring after the respective odd tone to be counted, with early features (<100 msec) corresponding to unconscious sensory transmission (auditory cortex, N100), and later features produced by cognitive processing in the ventral attentional network, i.e., P300, referring to the large positive deflection at roughly 300 msec in healthy adults (young or elderly). The P300 latency is sensitive to detecting reduced synaptic transmission related to cognitive decline in AD patients and other dementias (Olichney, 2011).

[2] = test system: Rat primary cortical neuron cultures; assay type: cell-based; conditions: for Significance of neuroprotection vs 1 uM LPS: 24 h LPS
Rat hippocampal neurons [3] = assay: Neurite outgrowth assay; assay type: cell-based
Rat hippocampal neurons [4] = assay: Synaptogenesis assay; assay type: cell-based; conditions: for Significant increase in: Synapses: Table 4 study
[5] = test system: scopolamine-induced spatial memory deficits in rats; assay: Scopolamine-induced spatial memory deficit, Morris water maze (3 mg/kg scopolamine, 8 days); assay type: in vivo, rat

## CCC(C)CN1CC2N(C(=O)c3ccc(OC(F)F)cc3)CCC(=O)N2[C@@H](C)C1=O (some centres unmarked) [Compound 2a]
[1]
  patient outcome as measured by one or more of the screening assessments: reduces the rate of decline, stabilizes, or improves patient outcome
  safety and tolerability: acceptable safety and tolerability
[2]; 0.1 nM
  Significance of neuroprotection vs 1 uM LPS: +++ (+++ indicates p<0.001)
[2]; 1 nM
  Significance of neuroprotection vs 1 uM LPS: +++ (+++ indicates p<0.001)
[2]; 10 nM
  Significance of neuroprotection vs 1 uM LPS: +++ (+++ indicates p<0.001)
[2]; 100 nM
  Significance of neuroprotection vs 1 uM LPS: +++ (+++ indicates p<0.001)
[2]; 1 μM
  Significance of neuroprotection vs 1 uM LPS: +++ (+++ indicates p<0.001)
[2]; at at least one dose tested
  protection of primary neurons from LPS-stimulated inflammatory toxicity: protected primary neurons from LPS-stimulated inflammatory toxicity
Rat hippocampal neurons [3]
  neurite length / extension of neurites (in words): increase neurite length at a concentration of 10 nM
Rat hippocampal neurons [3]; 10 nM, Table 4 study
  Significant increase in: Neurite length: ++++ (++++ = p < 0.0001)
Rat hippocampal neurons [4]
  synapse counts (in words): increase synapse counts at all concentrations tested
Rat hippocampal neurons [4]; 1 nM
  Significant increase in: Synapses: ++++ (++++ = p < 0.0001)
Rat hippocampal neurons [4]; 10 nM
  Significant increase in: Synapses: ++++ (++++ = p < 0.0001)
Rat hippocampal neurons [4]; 100 nM
  Significant increase in: Synapses: ++++ (++++ = p < 0.0001)
[5]; 0.1 mg/kg PO
  Cognitive Improvement: − (− indicates post-test p-value above 0.06)
[5]; 1 mg/kg PO
  Cognitive Improvement: +++ (+++ indicates post-test p-value below 0.01)
[5]; 10 mg/kg PO
  Cognitive Improvement: − (− indicates post-test p-value above 0.06)
